Experimental findings from PubChem BioAssay (NCI) are described below.

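How tested: cells in 96-well plates exposed to compound for 48 hours at five concentrations. TGI denotes the concentration required for complete inhibition of growth.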

Test systems include SW-620 colon; SF-268 CNS; OVCAR-8 ovarian; HT29 colon; OVCAR-5 ovarian; MALME-3M melanoma; NCI/ADR-RES ovarian; KM12 colon; RPMI-8226 leukemia; LOX IMVI melanoma; HOP-92 NSCLC; K-562 leukemia; SF-295 CNS; HCT-116 colon; MDA-N; SF-539 CNS; 786-0 renal; UACC-257 melanoma; HCC-2998 colon.
Holding throughout (test): DTP human tumour cell line panel, 48 h

For the molecule `COc1cc(O)c(C(=O)/C=C/c2ccc(O)cc2)cc1Oc1ccc(/C=C/C(=O)c2ccc(O)cc2O)cc1`, the TGI with SW-620 colon was 38.5 µM; with SF-268 CNS it was 20.5 µM; in the assay on OVCAR-8 ovarian it was 24.7 µM; in the assay with HT29 colon, 14.2 µM; in the assay on OVCAR-5 ovarian, 26.4 µM; with MALME-3M melanoma, 17.6 µM. Besides, the TGI in the assay on NCI/ADR-RES ovarian amounted to 26.7 µM; with KM12 colon, 15.5 µM; in the assay on RPMI-8226 leukemia, 17.6 µM; in the assay with LOX IMVI melanoma, 18.3 µM; in the assay on HOP-92 NSCLC, 22.2 µM; in the assay with K-562 leukemia, 22.8 µM. The TGI in the assay on SF-295 CNS stood at 18.2 µM; in the assay on HCT-116 colon, 14.7 µM; in the assay with MDA-N it was 31 µM; in the assay with SF-539 CNS, 16.2 µM; with 786-0 renal, 16.5 µM; with UACC-257 melanoma it was 23.2 µM.

`COC(=O)c1c(C#N)[nH]c(-c2ccsc2)c1C(=O)OC`: the TGI with SW-620 colon, with SF-268 CNS, in the assay with OVCAR-8 ovarian, with HT29 colon, with OVCAR-5 ovarian and with MALME-3M melanoma was > 100 µM in each case. Moreover, the TGI with NCI/ADR-RES ovarian, with KM12 colon, in the assay on RPMI-8226 leukemia, with LOX IMVI melanoma, with HOP-92 NSCLC and with K-562 leukemia was > 100 µM throughout. For the same molecule, the concentration for total growth inhibition (TGI) in the assay on SF-295 CNS, in the assay with HCT-116 colon, with MDA-N, in the assay with 786-0 renal and in the assay with UACC-257 melanoma was > 100 µM each time.

With `Cc1cc(C)c(C(=O)c2nnc3ccccc3c2N)c(C)c1`, the TGI is > 100 µM with SW-620 colon; > 100 µM in the assay with SF-268 CNS; 76.8 µM in the assay on HT29 colon; > 100 µM in the assay with OVCAR-5 ovarian; 74.2 µM in the assay with NCI/ADR-RES ovarian; 42 µM in the assay with KM12 colon. Moreover, the TGI is > 100 µM in the assay on RPMI-8226 leukemia; 34.9 µM in the assay on LOX IMVI melanoma; 52.9 µM in the assay on HOP-92 NSCLC; 23.6 µM in the assay on HCT-116 colon; 52.6 µM in the assay with MDA-N; 32.2 µM in the assay on 786-0 renal. Moreover, the TGI in the assay on UACC-257 melanoma is > 100 µM.

On to `CC(O)CCCCC(O)CCC[C@H](O)[C@H]1CCC([C@H]2CCC([C@@H](O)CCCCCCCCCCCCC3=C[C@H](C)OC3=O)O2)O1` (some centres not stated), for which the total growth inhibition concentration (TGI) was 23.4 µM in the assay with SW-620 colon; 22.4 µM with SF-268 CNS; 21.7 µM in the assay on OVCAR-8 ovarian; 20.7 µM with HT29 colon; 22 µM in the assay with OVCAR-5 ovarian; 15.4 µM in the assay with NCI/ADR-RES ovarian. Besides, the TGI with KM12 colon is 16.2 µM; with HOP-92 NSCLC, 21.6 µM; in the assay on SF-295 CNS, 18.7 µM; in the assay with HCT-116 colon it was 15.5 µM; in the assay on MDA-N it was 22 µM; in the assay with SF-539 CNS, 20.6 µM. Moreover, the values for the TGI with 786-0 renal, in the assay with HCC-2998 colon and in the assay with UACC-257 melanoma were 25.9 µM, 23.9 µM and 20.7 µM, respectively.

Take `COc1ccc(NC(=O)N(C)CC2(O)CCC(C(C)(C)C)CC2)cc1` (configuration not stated): the TGI in the assay on SW-620 colon was > 100 µM; with SF-268 CNS, > 100 µM; in the assay with OVCAR-8 ovarian it was > 100 µM; in the assay on HT29 colon, > 100 µM; in the assay on OVCAR-5 ovarian it was > 100 µM; in the assay on MALME-3M melanoma, 99.3 µM. Also, the TGI with NCI/ADR-RES ovarian was > 100 µM; in the assay on KM12 colon, > 100 µM; in the assay with RPMI-8226 leukemia, 72.5 µM; with LOX IMVI melanoma, 74.7 µM; in the assay on HOP-92 NSCLC, 90.4 µM; in the assay with K-562 leukemia, > 100 µM. For the same molecule, the concentration for total growth inhibition (TGI) with SF-295 CNS was 91.7 µM; in the assay on HCT-116 colon it was > 100 µM; in the assay with MDA-N, > 100 µM; in the assay on SF-539 CNS, > 100 µM; in the assay with 786-0 renal, > 100 µM; in the assay on UACC-257 melanoma it was > 100 µM.

On to `Cc1nc2ccc(NC(=S)Nc3ccccc3)cc2c(=O)n1-c1ccccc1`, for which the TGI in the assay with SW-620 colon, in the assay with SF-268 CNS, with OVCAR-8 ovarian, in the assay with HT29 colon, in the assay on OVCAR-5 ovarian and in the assay on MALME-3M melanoma was > 100 µM each time. For the same molecule, the TGI in the assay on NCI/ADR-RES ovarian is > 100 µM; in the assay with KM12 colon it was > 100 µM; in the assay on RPMI-8226 leukemia, 94.6 µM; in the assay on LOX IMVI melanoma, > 100 µM; with K-562 leukemia, > 100 µM; with SF-295 CNS, > 100 µM. The TGI in the assay with HCT-116 colon, in the assay on MDA-N, in the assay with 786-0 renal, in the assay with HCC-2998 colon and with UACC-257 melanoma was > 100 µM throughout.

In the case of `CC1(C)CC(=O)C(C=NC(=O)c2ccncc2)=C(O)C1`, the TGI with SW-620 colon, in the assay with SF-268 CNS, in the assay on OVCAR-8 ovarian, in the assay on HT29 colon, with OVCAR-5 ovarian and with NCI/ADR-RES ovarian was > 100 µM throughout. Moreover, the TGI in the assay with KM12 colon, with LOX IMVI melanoma, with HOP-92 NSCLC, with SF-295 CNS, in the assay on HCT-116 colon and in the assay with MDA-N was > 100 µM throughout. The TGI in the assay with SF-539 CNS, in the assay on 786-0 renal, in the assay with HCC-2998 colon and with UACC-257 melanoma was > 100 µM throughout.

Consider `CC(=O)N(CCc1ccccc1)C(C#N)c1ccccc1` (configuration not stated), for which the TGI with SW-620 colon, with SF-268 CNS, in the assay on OVCAR-8 ovarian, with HT29 colon, in the assay with OVCAR-5 ovarian and with MALME-3M melanoma was > 100 µM each time. Besides, the TGI in the assay on NCI/ADR-RES ovarian, in the assay with KM12 colon, in the assay on RPMI-8226 leukemia, with LOX IMVI melanoma, in the assay with K-562 leukemia and in the assay with SF-295 CNS was > 100 µM in each case. Also, the TGI in the assay on HCT-116 colon, in the assay on MDA-N, in the assay on SF-539 CNS, in the assay on 786-0 renal, in the assay with HCC-2998 colon and in the assay on UACC-257 melanoma was > 100 µM in each case.

By TGI is commonly meant the concentration at which net growth stops.
